# Test results as given in PubChem BioAssay (NCI).
# “And” between values parts separate entries of the source, which are not always exact repeats. Equal entries are not always repeated.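 Following 48 hours of exposure in 96-well plates, responses at five concentrations were used to interpolate endpoints linearly. GI50 is the concentration that inhibits growth by half. TGI: total growth inhibition.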
# Columns and labels:
# Assay in all cases: NCI anticancer screen, dose series, 48 h
# [1] = system: M14 melanoma
# [2] = system: SN12C renal
# [3] = system: HT29 colon
# [4] = system: NCI-H226 lung
# [5] = system: OVCAR-3 ovarian
# [6] = system: RPMI-8226 leukemia
# [7] = system: SW-620 colon
# [8] = system: U251 CNS
# [9] = system: CAKI-1 renal
# [10] = system: MDA-MB-435
SMILES,TGI [1],TGI [2],TGI [3],TGI [4],TGI [5],TGI [6],TGI [7],TGI [8],TGI [9],GI50 [1],GI50 [6],GI50 [7],GI50 [2],GI50 [3],GI50 [4],GI50 [5],GI50 [10],TGI [10],GI50 [8],GI50 [9]
Cc1cc(N(CCC#N)CCC#N)ccc1N=Nc1ccc(S(N)(=O)=O)cc1,> 100 µM,> 100 µM,> 100 µM,> 100 µM,> 100 µM,> 100 µM,> 100 µM,> 100 µM,> 100 µM,–,–,–,–,–,–,–,–,–,–,–
CCCCCCCCCCCC(=O)OCCOCCOCCOCCOCCOCc1ccccc1,> 100 µM,> 100 µM,> 100 µM,> 100 µM,> 100 µM,> 100 µM,> 100 µM,> 100 µM,> 100 µM,–,–,–,–,–,–,–,–,–,–,–
Cc1c(C(=O)CC(=O)C(=O)Nc2ccccc2C(F)(F)F)[n+](=O)c2ccccc2n1[O-],39 µM,54.4 µM,57.2 µM,> 100 µM,8.37 µM,24.2 µM,47 µM,49 µM,> 100 µM,–,–,–,–,–,–,–,–,–,–,–
CCCCCCCCCCCCCC(=O)OC(/C=C/C(C)C)C(O)C(O)C(OC)C(=O)NC1CCCCN(C)C1=O (centres undefined),6.09 µM and > 49 µM,–,7.01 µM and > 49 µM,–,8.03 µM and > 49 µM,9.97 µM and > 49 µM,6.06 µM and > 49 µM,6.43 µM and > 49 µM,7.51 µM,> 49 µM,> 49 µM,> 49 µM,–,–,–,–,–,–,–,–
CC1(C)C(=O)/C=C\C(=O)C(C)(C)C2=CC=C(O2)C(C)(C)C(=O)/C=C\C(=O)C(C)(C)C2=CC=C1O2,–,> 100 µM,> 100 µM,> 100 µM,> 100 µM,–,> 100 µM,> 100 µM,> 100 µM,–,–,–,–,–,–,–,–,–,–,–
Cc1cc(NS(=O)(=O)c2ccc(Nc3c4ccccc4nc4c(C(=O)N5CCN(CCOS(C)(=O)=O)CC5)cccc34)cc2)no1,> 100 µM,> 100 µM,> 100 µM,> 100 µM,> 100 µM,> 100 µM,–,> 100 µM,> 100 µM,–,–,–,–,–,–,–,–,–,–,–
NC(=O)NO.O.O.O.O.O.O.O.O.O.O.O.[Ge].[Ge].[Ge].[Ge].[Ge].[O]=[Ge].[O]=[Ge].[O]=[Ge].[O]=[Ge].[O]=[Ge][OH],> 89 µM,> 100 µM,> 100 µM,> 100 µM,> 100 µM,> 100 µM,> 100 µM,69.9 µM,> 100 µM,–,–,–,–,–,–,–,–,–,–,–
Cc1nc2c(ccc3ncccc32)[nH]1,> 100 µM,> 100 µM,> 100 µM,–,> 100 µM,> 100 µM,> 100 µM,> 100 µM,> 100 µM,–,–,–,–,–,–,–,–,–,–,–
Cc1c(C(=O)C/C(=N/NC(=O)c2ccccc2O)C(=O)Nc2ccccc2C(C)C)[n+](=O)c2ccccc2n1[O-],> 100 µM,> 100 µM,> 100 µM,> 100 µM,> 100 µM,–,> 100 µM,> 100 µM,> 100 µM,–,–,–,–,–,–,–,–,–,–,–
COc1cnc2c(c1)C(=O)c1c-2n(CCCN2CCOCC2)c(=O)c2cc(F)ccc12,> 100 µM,> 100 µM,0.638 µM,1.14 µM,2.37 µM,0.804 µM,> 100 µM,0.563 µM,–,0.288 µM,0.135 µM,0.149 µM,0.32 µM,0.147 µM,0.206 µM,0.25 µM,0.454 µM,> 100 µM,0.0936 µM,–
C=CCO[C@H]1CO[C@H]2[C@@H]1OC[C@@H]2Oc1ccc(Nc2ccnc(Nc3ccc(O[C@H]4CO[C@H]5[C@@H]4OC[C@@H]5OCC=C)c(Cl)c3)n2)cc1Cl,3.4 µM,3.33 µM,4.99 µM,72.3 µM,3.25 µM,–,3.29 µM,3.83 µM,3.1 µM,1.77 µM,–,1.77 µM,1.68 µM,2.08 µM,7.46 µM,1.81 µM,1.67 µM,3.06 µM,1.85 µM,1.73 µM
COC(=O)CC[N+]1=CCC(c2ccccc2)(c2ccccc2)O1,> 100 µM,> 100 µM,> 100 µM,> 100 µM,> 100 µM,–,> 100 µM,> 100 µM,> 100 µM,–,–,–,–,–,–,–,–,> 100 µM,–,–
Cc1ccc(NC(=O)Nc2ccc(-c3cccnc3)cc2N2CCC(CO)CC2)cc1,13.9 µM,> 100 µM,9.93 µM,> 100 µM,5.23 µM,14.3 µM,> 100 µM,6.81 µM,> 100 µM,2.95 µM,3.02 µM,2.52 µM,4.49 µM,1.47 µM,6.31 µM,1.67 µM,–,–,2.02 µM,3.82 µM
OCC1=CC(NC2CC(CO)C(O)C(O)C2O)C(O)C(O)C1O (centres undefined),> 100 µM,> 100 µM,> 100 µM,> 100 µM,> 100 µM,> 100 µM,> 100 µM,> 100 µM,–,–,–,–,–,–,–,–,–,–,–,–
CCC[CH2][Sn]([CH2]CCC)([S]c1cccc2cccnc12)[S]c1cccc2cccnc12,0.339 µM,0.822 µM,0.335 µM,–,0.228 µM,–,0.379 µM,0.409 µM,0.342 µM,0.175 µM,–,0.132 µM,0.24 µM,0.138 µM,–,0.0703 µM,–,–,0.197 µM,0.123 µM
CCOC(=O)CCC1(C(=O)OCC)CCCCC1=O (centres undefined),–,–,> 100 µM,–,> 100 µM,> 100 µM,> 100 µM,> 100 µM,–,–,–,–,–,–,–,–,–,–,–,–
Cc1ccc(S(=O)(=O)OC[C@@H]2CO2)cc1,> 100 µM,> 100 µM,> 100 µM,> 100 µM,> 100 µM,–,> 100 µM,–,> 100 µM,–,–,–,–,–,–,–,–,–,–,–
COc1cc2cc(OC)c3cc4c(cc3c2c(OC)c1OC)OCO4,> 62.1 µM,> 100 µM,30.7 µM,> 100 µM,> 100 µM,52.9 µM,43.8 µM,> 59.3 µM,> 100 µM,–,–,–,–,–,–,–,–,–,–,–
O=C(O)CCNCCCNCCC(=O)O,> 100 µM,> 100 µM,> 100 µM,> 100 µM,> 100 µM,> 100 µM,> 100 µM,> 100 µM,> 100 µM,–,–,–,–,–,–,–,–,–,–,–
CCOC(=O)C(C)(C)Oc1ccc2c(-c3ccccc3)cc(=O)oc2c1,> 100 µM,> 100 µM,–,87.4 µM,> 100 µM,49.9 µM,> 100 µM,> 100 µM,–,–,–,–,–,–,–,–,–,–,–,–
